In ChEMBL document CHEMBL4431304, “Myritonines A-C, Alkaloids from Myrioneuron tonkinensis Based on a Novel Hexacyclic Skeleton” (J Nat Prod, 2016) one finds IC50, selectivity ratio and Activity data, which are given here for three molecules.

One series concerns A549. The series can be described thus: Cytotoxicity against human A549 cells assessed as reduction in cell viability after 48 hrs by MTT assay. It is filed as functional, cell-based. Conditions: A549, 48 h.
Another series has as its system MCF7. Kind of series: Cytotoxicity against human MCF7 cells assessed as reduction in cell viability after 48 hrs by MTT assay. It is filed as functional, cell-based. Conditions: MCF7, 48 h. (Formazan colour is commonly taken as a measure of viable cells.)
For the next series, the system named is SMMC-7721. Kind of series: Cytotoxicity against human SMMC7721 cells assessed as reduction in cell viability after 48 hrs by MTT assay. It is filed as functional, cell-based. Conditions: SMMC-7721, 48 h.
The subject of the next series is SW480. Kind of series: Cytotoxicity against human SW480 cells assessed as reduction in cell viability after 48 hrs by MTT assay. It counts as functional, cell-based. The conditions noted are these: SW480, 48 h.
Another series relates to HL-60. Kind of series: Cytotoxicity against human HL60 cells assessed as reduction in cell viability after 48 hrs by MTT assay. It counts as functional, cell-based. Conditions: HL-60, 48 h.
Series [1] is described as follows: Therapeutic index, ratio of CC50 for human Huh7.5 cells to EC50 for Hepatitis C virus. The conditions noted are these: read-out: Ratio CC50/EC50. It is filed as toxicity.
In a further series the test system is Hepatitis C virus. Kind of series: Antiviral activity against HCV infected in human Huh7.5 cells assessed as decrease in viral RNA level after 72 hrs by RT-PCR method. It is filed as functional, organism-based. Conditions: Hepacivirus hominis.

Activity calls are given as the source filed them. No cut-off for these calls is given here.

In the case of `O=C1[C@H]2CCC[C@H]3CC[C@H]4N5CCCC[C@H]5[C@@H]5CCCN1[C@H]5N4[C@@H]32`, the IC50 with A549, in the series with MCF7, in the series on SMMC-7721, in the series on SW480 and with HL-60 was above 10 µM each time. The selectivity ratio in series [1] was above 11. Also, the result in the series with Hepatitis C virus was Active.
Regarding `N#C[C@@H]1N2CCC[C@H]3[C@@H]4CCCCN4[C@@H]4CC[C@H]5CCC[C@]1(O)[C@@H]5N4[C@@H]32`, the IC50 in the series with A549, in the series on MCF7, in the series on SMMC-7721, in the series with SW480 and with HL-60 was above 10 µM throughout.
In the case of `C1C[C@H]2CC[C@H]3N4CCCC[C@H]4[C@@H]4CCCN5C[C@@H](C1)[C@H]2N3[C@@H]45`, the IC50 in the series on A549, in the series with MCF7, in the series with SMMC-7721, with SW480 and with HL-60 was above 10 µM throughout. The selectivity ratio in series [1] was above 12. For the same molecule, the outcome with Hepatitis C virus was Active.

For orientation: IC50 means the point on the concentration scale where inhibition reaches its midpoint.
